Source: US20250122147A1, “ARYL CYCLOHEXANEDIONE DERIVATIVE OR SALT THEREOF, PEST CONTROL AGENT CONTAINING SAME, AND METHOD FOR USE THEREOF” (ADEKA Corporation, priority 2021, published 2025)

These compounds were tested on Plutella xylostella (assay: Insecticidal test against Plutella xylostella). Settings: 500 ppm drug solution; Chinese cabbage seedlings with eggs immersed about 30 sec; six days after immersion; 25° C.
From the text: Six days after the immersion in the drug solution, the number of surviving insects was examined. […] In triplicate using 10 per plot.

SMILES	corrected mortality, rating of assessment
Cc1ccccc1C1CC(=O)C(C(=O)Nc2ccc(F)cc2)=C(O)C1 (stereo not drawn) [1-1]	D or higher
O=C1CC(c2cc(C(F)(F)F)cc(C(F)(F)F)c2)CC(O)=C1C(=O)Nc1ccc(F)cc1 (stereo not drawn) [1-2]	D or higher
O=C1CC(c2ccc(C(F)(F)F)c(Cl)c2)CC(O)=C1C(=O)Nc1ccc(F)cc1 (stereo not drawn) [1-3]	D or higher
O=C1CC(c2ccc(C(F)(F)F)cc2)CC(O)=C1C(=O)Nc1ccc(F)cc1 (stereo not drawn) [1-6]	D or higher
N#Cc1ccc(NC(=O)C2=C(O)CC(c3ccc(C(F)(F)F)cc3)CC2=O)cc1 (stereo not drawn) [1-7]	D or higher
COc1ccc(NC(=O)C2=C(O)CC(c3ccc(C(F)(F)F)cc3)CC2=O)cc1 (stereo not drawn) [1-8]	D or higher
O=C1CC(c2ccc(C(F)(F)F)cc2)CC(O)=C1C(=O)NC1CCCCC1 (stereo not drawn) [1-11]	D or higher
O=C1CC(c2ccc(C(F)(F)F)cc2)CC(O)=C1C(=O)NCc1ccccc1 (stereo not drawn) [1-12]	D or higher
Cc1ccc(NC(=O)C2=C(O)CC(c3ccc(C(F)(F)F)cc3)CC2=O)cc1 (stereo not drawn) [1-15]	D or higher
Cc1cc(Cl)ccc1NC(=O)C1=C(O)CC(c2ccc(C(F)(F)F)cc2)CC1=O (stereo not drawn) [1-16]	D or higher
O=C1CC(c2ccc(C(F)(F)F)cc2)CC(O)=C1C(=O)Nc1ccc(F)cc1F (stereo not drawn) [1-17]	D or higher
O=C1CC(c2ccc(C(F)(F)F)cc2)CC(O)=C1C(=O)Nc1c(F)cccc1F (stereo not drawn) [1-18]	D or higher
O=C1CC(c2ccc(C(F)(F)F)cc2)CC(O)=C1C(=O)Nc1ccc(F)c(F)c1 (stereo not drawn) [1-19]	D or higher
O=C1CC(c2ccc(C(F)(F)F)cc2)CC(O)=C1C(=O)Nc1cccc(Cl)c1 (stereo not drawn) [1-21]	D or higher
O=C1CC(c2ccc(C(F)(F)F)cc2)CC(O)=C1C(=O)Nc1ccc(Cl)cc1Cl (stereo not drawn) [1-22]	D or higher
O=C1CC(c2ccc(C(F)(F)F)cc2)CC(O)=C1C(=O)Nc1c(Cl)cccc1Cl (stereo not drawn) [1-23]	D or higher
O=C1CC(c2ccc(C(F)(F)F)cc2)CC(O)=C1C(=O)Nc1cccc(C(F)(F)F)c1 (stereo not drawn) [1-30]	D or higher
N#Cc1cccc(NC(=O)C2=C(O)CC(c3ccc(C(F)(F)F)cc3)CC2=O)c1 (stereo not drawn) [1-34]	D or higher
O=C1CC(c2ccc(C(F)(F)F)cc2)CC(O)=C1C(=O)Nc1cccc([N+](=O)[O-])c1 (stereo not drawn) [1-35]	D or higher
CC(=O)c1ccc(NC(=O)C2=C(O)CC(c3ccc(C(F)(F)F)cc3)CC2=O)cc1 (stereo not drawn) [1-36]	D or higher
O=C1CC(c2ccc(C(F)(F)F)cc2)CC(O)=C1C(=O)Nc1ccccc1F (stereo not drawn) [1-38, N-(2-fluorophenyl)-5-hydroxy-3-oxo-4′-(trifluoromethyl)-1,2,3,6-tetrahydro-[1,1′-biphenyl]-4-carboxamide]	D or higher
O=C1CC(c2ccc(C(F)(F)F)cc2)CC(O)=C1C(=O)Nc1cccc2ccccc12 (stereo not drawn) [1-39]	D or higher
O=C1CC(c2ccc(C(F)(F)F)cc2)CC(O)=C1C(=O)Nc1cccs1 (stereo not drawn) [1-40]	D or higher
O=C1CC(c2ccc(C(F)(F)F)cc2)CC(O)=C1C(=O)Nc1cccc(F)c1 (stereo not drawn) [1-43]	D or higher

SMILES	corrected mortality, rating of assessment
O=C1CC(c2ccc(C(F)(F)F)cc2)CC(O)=C1C(=O)Nc1c(F)c(F)c(F)c(F)c1F (stereo not drawn) [1-45]	D or higher
CSc1ccc(NC(=O)C2=C(O)CC(c3ccc(C(F)(F)F)cc3)CC2=O)cc1 (stereo not drawn) [1-49]	D or higher
O=C1CC(c2ccc(C(F)(F)F)cc2)CC(O)=C1C(=O)Nc1ccc([S+]([O-])C(F)(F)F)cc1 (stereo not drawn) [1-52]	D or higher
O=C1CC(c2ccc(C(F)(F)F)cc2)CC(O)=C1C(=O)Nc1ccc(S(=O)(=O)C(F)(F)F)cc1 (stereo not drawn) [1-53]	D or higher
O=C1CC(c2ccc(C(F)(F)F)cc2)CC(O)=C1C(=O)Nc1ccc(Oc2ccccc2)cc1 (stereo not drawn) [1-54]	D or higher
O=C1CC(c2ccc(C(F)(F)F)cc2)CC(O)=C1C(=O)Nc1ccc2c(c1)OCO2 (stereo not drawn) [1-55]	D or higher
N#Cc1ccc(C2CC(=O)C(C(=O)Nc3ccc(F)cc3)=C(O)C2)cc1 (stereo not drawn) [1-61]	D or higher
NC(=O)c1ccc(C2CC(=O)C(C(=O)Nc3ccc(F)cc3)=C(O)C2)cc1 (stereo not drawn) [1-62]	D or higher
Cc1ccc(C2CC(=O)C(C(=O)Nc3ccc(F)cc3)=C(O)C2)cc1 (stereo not drawn) [1-63]	D or higher
O=C1CC(c2ccc(OC(F)(F)F)cc2)CC(O)=C1C(=O)Nc1ccc(F)cc1 (stereo not drawn) [1-65]	D or higher
O=C1CC(c2ccc(SC(F)(F)F)cc2)CC(O)=C1C(=O)Nc1ccc(F)cc1 (stereo not drawn) [1-66]	D or higher
O=C1CC(c2ccc(C(F)(F)F)nc2)CC(O)=C1C(=O)Nc1ccc(C(F)(F)F)cc1 (stereo not drawn) [1-69]	D or higher
O=C1CC(c2ccc(C(F)(F)F)nc2)CC(O)=C1C(=O)Nc1ccc(OC(F)(F)F)cc1 (stereo not drawn) [1-70]	D or higher
O=C1CC(c2ccc(C(F)(F)F)nc2)CC(O)=C1C(=O)Nc1ccc(Cl)cc1 (stereo not drawn) [1-71]	D or higher
O=C1CC(c2cccs2)CC(O)=C1C(=O)Nc1cccs1 (stereo not drawn) [1-75]	D or higher
Cc1ccc(C2CC(=O)C(C(=O)Nc3ccc(F)cc3)=C(O)C2)s1 (stereo not drawn) [1-76]	D or higher
O=C1CC(c2ccc(C(F)(F)F)c(Cl)c2)CC(O)=C1C(=S)Nc1ccc(C(F)(F)F)cc1 (stereo not drawn) [1-77]	D or higher
O=C1CC(c2ccc(C(F)(F)F)cc2)CC(O)=C1C(=S)Nc1ccc(F)cc1 (stereo not drawn) [1-81]	D or higher
O=C1CC(c2ccc(C(F)(F)F)cc2)CC(O)=C1C(=S)Nc1ccccc1 (stereo not drawn) [1-93]	D or higher
O=C1CC(c2ccc(C(F)(F)F)cc2)CC(O)=C1C(=S)Nc1ccccc1F (stereo not drawn) [1-94]	D or higher
O=C1CC(c2ccc(C(F)(F)F)cc2)CC(O)=C1C(=S)Nc1cccc(F)c1 (stereo not drawn) [1-95]	D or higher
O=C1CC(c2ccc(C(F)(F)F)cc2)CC(O)=C1C(=S)Nc1cccc(C(F)(F)F)c1 (stereo not drawn) [1-99]	D or higher
N#Cc1ccc(NC(=S)C2=C(O)CC(c3ccc(C(F)(F)F)cc3)CC2=O)cc1 (stereo not drawn) [1-100]	D or higher
O=C1CC(c2ccc(C(F)(F)F)cc2)CC(O)=C1C(=S)Nc1ccc(F)cn1 (stereo not drawn) [1-108]	D or higher

SMILES	corrected mortality, rating of assessment
CC1(c2ccc(C(F)(F)F)cc2)CC(=O)C(C(=S)Nc2ccc(F)cc2)=C(O)C1 (stereo not drawn) [1-140]	D or higher
O=C1CC(c2ccc(C(F)(F)F)cc2)CC(O)=C1C(=O)Nc1ccc(C(F)(F)F)cn1 (stereo not drawn) [1-142]	D or higher
O=C1CC(c2ccc(C(F)(F)F)cc2)CC(O)=C1C(=O)NC1CC1 (stereo not drawn) [1-144]	D or higher
O=C1CC(c2ccc(Cl)s2)CC(O)=C1C(=O)Nc1ccc(F)cc1 (stereo not drawn) [1-145]	D or higher
O=C1CC(c2ccc(C(F)(F)F)cc2)CC(O)=C1C(=O)Nc1ccc(F)nc1 (stereo not drawn) [1-146]	D or higher
O=C1CC(c2ccc(C(F)(F)F)cc2)CC(O)=C1C(=O)Nc1ccnc(F)c1 (stereo not drawn) [1-147]	D or higher
Cc1ccc(C2CC(=O)C(C(=O)Nc3ccc(F)cn3)=C(O)C2)cc1 (stereo not drawn) [1-148]	D or higher
O=C1CC(c2ccc(C(F)(F)F)nc2)CC(O)=C1C(=O)Nc1ccnc(F)c1 (stereo not drawn) [1-151]	D or higher
O=C1CC(c2ccc(C(F)(F)F)cc2)CC(O)=C1C(=O)Nc1ncc(F)cn1 (stereo not drawn) [1-155]	D or higher
O=C1CC(c2ccc(C(F)(F)F)cc2)CC(O)=C1C(=O)Nc1cccc2ncccc12 (stereo not drawn) [1-156]	D or higher
O=C1CC(c2ccc(C(F)(F)F)cc2)CC(O)=C1C(=O)Nc1ccc(F)nn1 (stereo not drawn) [1-162]	D or higher
CS(=O)(=O)c1ccc(C2CC(=O)C(C(=O)Nc3ccc(F)cn3)=C(O)C2)cc1 (stereo not drawn) [1-165]	D or higher
Cn1ccc(NC(=O)C2=C(O)CC(c3ccc(C(F)(F)F)cc3)CC2=O)n1 (stereo not drawn) [1-167]	D or higher
O=C1CC(c2ccc(C(F)(F)F)cc2)CC(O)=C1C(=O)Nc1ccc(S(F)(F)(F)(F)F)cc1 (stereo not drawn) [1-184]	D or higher
O=C1CC(c2ccc([N+](=O)[O-])cc2)CC(O)=C1C(=O)Nc1ccc(F)cc1 (stereo not drawn) [1-207]	D or higher
CSc1ccc(C2CC(=O)C(C(=O)Nc3ccc(F)cc3)=C(O)C2)cc1 (stereo not drawn) [1-208]	D or higher
O=C1CC(c2ccc(S(=O)(=O)C(F)(F)F)cc2)CC(O)=C1C(=O)Nc1ccc(F)cc1 (stereo not drawn) [1-209]	D or higher
CS(=O)(=O)c1ccc(C2CC(=O)C(C(=O)Nc3ccc(F)cc3)=C(O)C2)cc1 (stereo not drawn) [1-210]	D or higher
O=C1CC(c2ccc([S+]([O-])C(F)(F)F)cc2)CC(O)=C1C(=O)Nc1ccc(F)cc1 (stereo not drawn) [1-211]	D or higher
C[S+]([O-])c1ccc(C2CC(=O)C(C(=O)Nc3ccc(F)cc3)=C(O)C2)cc1 (stereo not drawn) [1-212]	D or higher
O=C1CC(c2ccc(SC(F)(F)F)cc2)CC(O)=C1C(=O)Nc1ccc(F)cc1 (stereo not drawn) [1-213]	D or higher
O=C1CC(c2ccc3c(c2)OCO3)CC(O)=C1C(=O)Nc1ccc(F)cc1 (stereo not drawn) [1-222]	D or higher
O=C1CC(c2cnco2)CC(O)=C1C(=O)Nc1ccc(F)cc1 (stereo not drawn) [1-223]	D or higher
O=C1CC(c2ccc(Br)cn2)CC(O)=C1C(=S)Nc1ccc(F)cc1 (stereo not drawn) [1-229]	D or higher
